pIC50: −log10 of the molar value.
Biological target: T1, human recombinant P2X7 receptor (Homo sapiens, UniProt Q99572)
T1 construct: expressed in transfected cells
T1 sequence (Q99572 1-595): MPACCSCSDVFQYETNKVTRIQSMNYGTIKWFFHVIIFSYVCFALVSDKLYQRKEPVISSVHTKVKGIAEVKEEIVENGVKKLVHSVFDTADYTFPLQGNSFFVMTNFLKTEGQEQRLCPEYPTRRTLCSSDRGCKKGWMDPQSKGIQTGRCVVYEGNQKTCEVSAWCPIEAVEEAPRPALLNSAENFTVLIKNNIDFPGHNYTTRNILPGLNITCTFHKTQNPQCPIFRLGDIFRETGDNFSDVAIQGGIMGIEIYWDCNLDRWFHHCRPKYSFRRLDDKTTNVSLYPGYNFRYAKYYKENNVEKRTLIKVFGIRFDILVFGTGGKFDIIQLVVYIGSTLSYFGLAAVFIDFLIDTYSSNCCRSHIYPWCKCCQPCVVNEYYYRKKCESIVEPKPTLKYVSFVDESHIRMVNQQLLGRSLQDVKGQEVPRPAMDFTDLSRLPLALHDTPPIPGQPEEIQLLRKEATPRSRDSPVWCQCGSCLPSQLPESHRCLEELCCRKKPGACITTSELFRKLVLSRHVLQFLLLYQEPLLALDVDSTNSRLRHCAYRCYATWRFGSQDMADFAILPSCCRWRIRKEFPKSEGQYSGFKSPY
Assay: YO-PRO assay: P2X7 receptor antagonistic activity in HEK cells stably expressing P2X7
Assay type: cell-based
Conditions: antagonistic activity with respect to the P2X7 receptor, read-out: IC50
Procedure: The P2X7 receptor antagonistic activity of the compounds of formula (I) is determined in accordance with the following experimental method.
Cell Line Generation and YO-PRO Assay
Cell line generation was performed in general according to established molecular cloning protocols. Specifically, RNA was extracted from human whole blood using the Qiagen RNeasy kit (Qiagen, CH) according to the manufacturer's instructions. Subsequently cDNA was made (Superscript II, Invitrogen AG, CH) and the human P2X7 gene (genbank ref. BC011913) was amplified with the following primers: […] and […]. The amplified sequence was subsequently ligated into a pcDNA3.1 (+) NotI, NheI digested plasmid. Human embryonic kidney (HEK) cells (ATCC CRL—1573, Manassas, Va., USA) were transfected with the pcDNA3.1 (+).hP2X7 plasmid using lipofectamine 2000 (Invitrogen AG, CH) according to the manufacturer's instructions. Following a 24 h exposure to DNA, cells were trypsinized and re-seeded at low density in the presence of 250 μg Geneticin. Geneticin resistant cells were then selected during two consecutive rounds of cloning by serial limiting dilution with visual inspection. Individual clones were screened for P2X7 expression by applying ATP and recording the resultant uptake of YO-PRO1. Specific cell clones were chosen based on RNA and protein expression. HEK cells stably expressing P2X7 were used to screen drugs using the YO-PRO1 assay. Cells were grown to confluency in adherent culture at 37° C. in a humidified 5% CO2 incubator (split 1/5 every 3-4 days with DMEM, 10% FCS, 1% Penicillin/Streptomycin, 250 μg/ml Geneticin). Adherent cells were detached by incubation with Trypsine (1 ml per 165 cm^2 dish) for 2 minutes, then washed off with 10 ml PBS (without Mg^2+ and Ca^2+), and resuspended in DMEM, 10% FCS, 1% Penicillin/Streptomycin, no Geneticin. 10′000 cells per well (48 hours before the assay) or 25′000 cells per well (Vi-cell XR (Beckman Coulter) (24 hours before the assay) in 50 μl full medium were seeded on 384-well black-wall, clear bottom plates, that were coated before with 10 μl per well Poly-L-Lysine, incubated for 30-60 minutes at 37° C. and washed once with PBS. Medium was removed from cells and 50 μl of assay buffer containing 0.5 μM YO-PRO-1 was added into the wells. Solutions of antagonist compounds were prepared by serial dilutions of a 10 mM DMSO solution of the antagonist into PBS using a BioMek (Beckman Coulter). Each concentration was performed in duplicate. For IC50 measurements 10 concentration points were measured (10 μM being the highest concentration followed by 9 serial dilution steps 1/3). The cells were incubated with the antagonists of the present invention together with ATP at a final concentration of 250 μM for 90 minutes. During this time period, four time points were taken. Each time point comprised the average of several measurements made within a few seconds. Fluorescence was measured in the FLIPR tetra (Molecular Devices) using the filters appropriate for YO-PRO-1 fluorescence (excitation 485/20, emission 530/25). The FLIPR tetra was equipped with Molecular Devices Screen Works system control software to define and run experimental protocols. […] For IC50 measurements the maximum intensity is plotted against the concentration of compound to determine IC50 values.

Row | pIC50 | Structure (SMILES)
1 | 6.60 | O=C(NCC(c1ccc(F)cc1F)N1CCCCC1)c1ccc2[nH]ccc2c1Cl (racemic) [Example 31, rac-4-Chloro-1H-indole-5-carboxylic acid [2-(2,4-difluoro-phenyl)-2-piperidin-1-yl-ethyl]-amide]
2 | 5.70 | Cc1noc(C)c1C(CNC(=O)c1ccc2[nH]ccc2c1Cl)N1CCOCC1 (racemic) [Example 53, rac-4-Chloro-1H-indole-5-carboxylic acid [2-(3,5-dimethyl-isoxazol-4-yl)-2-morpholin-4-yl-ethyl]-amide]
3 | 6.73 | O=C(NCC(c1ccc(Oc2ccccc2)cc1)N1CCCCC1)c1ccc2[nH]ccc2c1Cl (racemic) [Example 57, rac-4-Chloro-1H-indole-5-carboxylic acid [2-(4-phenoxy-phenyl)-2-piperidin-1-yl-ethyl]-amide]
4 | 6.34 | O=C(NCC(c1ccc(Cl)cc1Cl)N1CCOCC1)c1ccc2[nH]ccc2c1Cl (racemic) [Example 39, rac-4-Chloro-1H-indole-5-carboxylic acid [2-(2,4-dichloro-phenyl)-2-morpholin-4-yl-ethyl]-amide]
5 | 7.80 | CCc1cc(C(=O)NCC(c2cnc(C)nc2)N2CCOCC2)c(Cl)c2cc[nH]c12 (single isomer, unassigned) [Example 119, 4-Chloro-7-ethyl-1H-indole-5-carboxylic acid [2-(2-methyl-pyrimidin-5-yl)-2-morpholin-4-yl-ethyl]-amide]
6 | 7.85 | COc1cc(C(=O)NCC(c2cnc(C)nc2)N2CCOCC2)c(Cl)c2cc[nH]c12 (single isomer, unassigned) [Example 114, 4-Chloro-7-methoxy-1H-indole-5-carboxylic acid [2-(2-methyl-pyrimidin-5-yl)-2-morpholin-4-yl-ethyl]-amide]
7 | 8.10 | Cc1ncc(C(CNC(=O)c2ccc3[nH]ccc3c2Cl)N2CCOCC2)cn1 (single isomer, unassigned) [Example 3, 4-Chloro-1H-indole-5-carboxylic acid [2-(2-methyl-pyrimidin-5-yl)-2-morpholin-4-yl-ethyl]-amide]
8 | 7.72 | O=C(NCC(c1cc(F)cc(F)c1)N1CCOCC1)c1ccc2[nH]ccc2c1Cl (racemic) [Example 18, rac-4-Chloro-1H-indole-5-carboxylic acid [2-(3,5-difluoro-phenyl)-2-morpholin-4-yl-ethyl]-amide]
9 | 7.60 | Cc1ncc(C(CNC(=O)c2ccc3[nH]ccc3c2C)N2CCOCC2)cn1 (single isomer, unassigned) [Example 106, 4-Methyl-1H-indole-5-carboxylic acid [2-(2-methyl-pyrimidin-5-yl)-2-morpholin-4-yl-ethyl]-amide]
10 | 7.89 | CCOc1cc(C(=O)NCC(c2cnc(C)nc2)N2CCOCC2)c(Cl)c2cc[nH]c12 (racemic) [Example 110, rac-4-Chloro-7-ethoxy-1H-indole-5-carboxylic acid [2-(2-methyl-pyrimidin-5-yl)-2-morpholin-4-yl-ethyl]-amide]
11 | 5.69 | Cc1ncc(C(CNC(=O)c2ccc3[nH]ccc3c2Cl)N2CC3CC2CO3)cn1 (stereo not drawn) [Example 68, 4-Chloro-1H-indole-5-carboxylic acid [2-(2-methyl-pyrimidin-5-yl)-2-(2-oxa-5-aza-bicyclo[2.2.1]hept-5-yl)-ethyl]-amide]
12 | 6.19 | Cc1ncc(C(CNC(=O)c2ccc3[nH]ccc3c2Cl)N2CC(C)OC(C)C2)cn1 (single isomer, unassigned) [Example 41, 4-Chloro-1H-indole-5-carboxylic acid [2-(2,6-dimethyl-morpholin-4-yl)-2-(2-methyl-pyrimidin-5-yl)-ethyl]-amide]
13 | 8.02 | Cc1ncc(C(CNC(=O)c2cc(C)c3[nH]ccc3c2Cl)N2CCOCC2)cn1 (single isomer, unassigned) [Example 96, 4-Chloro-7-methyl-1H-indole-5-carboxylic acid [2-(2-methyl-pyrimidin-5-yl)-2-morpholin-4-yl-ethyl]-amide]
14 | 8.17 | Cc1ncc(C(CNC(=O)c2ccc3[nH]ccc3c2Cl)N2CCC(F)(F)CC2)cn1 (single isomer, unassigned) [Example 6, 4-Chloro-1H-indole-5-carboxylic acid [2-(4,4-difluoro-piperidin-1-yl)-2-(2-methyl-pyrimidin-5-yl)-ethyl]-amide]
15 | 7.21 | Cc1ncc(C(CNC(=O)c2ccc3[nH]ccc3c2Cl)OC2CCCCC2)cn1 (racemic) [Example 69, rac-4-Chloro-1H-indole-5-carboxylic acid [2-cyclohexyloxy-2-(2-methyl-pyrimidin-5-yl)-ethyl]-amide]
16 | 7.21 | O=C(NCC(c1ccc(F)cc1F)N1CCOCC1)c1ccc2[nH]ccc2c1Cl (racemic) [Example 34, rac-4-Chloro-1H-indole-5-carboxylic acid [2-(2,4-difluoro-phenyl)-2-morpholin-4-yl-ethyl]-amide]
17 | 5.64 | Cc1ncc(C(CNC(=O)c2ccc3[nH]ccc3c2Cl)N(C)C)cn1 (racemic) [Example 12, rac-4-Chloro-1H-indole-5-carboxylic acid [2-dimethylamino-2-(2-methyl-pyrimidin-5-yl)-ethyl]-amide]
18 | 6.46 | Cc1ncc(C(CNC(=O)c2ccc3[nH]ccc3c2Cl)N2CCC(C)CC2)cn1 (racemic) [Example 76, rac-4-Chloro-1H-indole-5-carboxylic acid [2-(4-methyl-piperidin-1-yl)-2-(2-methyl-pyrimidin-5-yl)-ethyl]-amide]
19 | 8.01 | Cc1ncc(C(CNC(=O)c2ccc3[nH]ccc3c2Cl)N2CCCCC2)cn1 (racemic) [Example 16, rac-4-Chloro-1H-indole-5-carboxylic acid [2-(2-methyl-pyrimidin-5-yl)-2-piperidin-1-yl-ethyl]-amide]
20 | 8.03 | Cc1ncc(C(CNC(=O)c2ccc3[nH]ccc3c2Cl)N2CCCC(F)(F)C2)cn1 (racemic) [Example 79, rac-4-Chloro-1H-indole-5-carboxylic acid [2-(3,3-difluoro-piperidin-1-yl)-2-(2-methyl-pyrimidin-5-yl)-ethyl]-amide]
21 | 6.20 | CCOC(CNC(=O)c1ccc2[nH]ccc2c1Cl)c1cnc(C)nc1 (racemic) [Example 67, rac-4-Chloro-1H-indole-5-carboxylic acid [2-ethoxy-2-(2-methyl-pyrimidin-5-yl)-ethyl]-amide]
22 | 8.41 | O=C(NCC(c1cnc(C(F)(F)F)nc1)N1CCOCC1)c1ccc2[nH]ccc2c1Cl (racemic) [Example 1, rac-4-Chloro-1H-indole-5-carboxylic acid [2-morpholin-4-yl-2-(2-trifluoromethyl-pyrimidin-5-yl)-ethyl]-amide]
23 | 6.71 | O=C(NCC(c1ccnc(O)c1)N1CCCCC1)c1ccc2[nH]ccc2c1Cl (racemic) [Example 74, rac-4-Chloro-1H-indole-5-carboxylic acid [2-(2-hydroxypyridin-4-yl)-2-piperidin-1-yl-ethyl]-amide]
24 | 7.96 | Cc1ncc(C(CNC(=O)c2cc(Cl)c3[nH]ccc3c2C)N2CCOCC2)cn1 (racemic) [Example 108, rac-7-Chloro-4-methyl-1H-indole-5-carboxylic acid [2-(2-methyl-pyrimidin-5-yl)-2-morpholin-4-yl-ethyl]-amide]

Source: patent US9718774B2, “Indole carboxamide derivatives as P2X7 receptor antagonist” (ACTELION PHARMACEUTICALS LTD, priority 2012, dated 2017)
